Tests used:
[1] = Check of Glutaraldehyde content when combined with BAK at the CMC; assay type: physicochemical
From the text: The multi-level mechanism of action is as follows. The Glutaraldehyde produces an inherent bacteriocidal effect. BAK lowers surface tension and thus aids in the spread of the Glut on the biofilm covered surface and serves as a binding agent between the Glut and the application surface. The BAK spreads the Glutaraldehyde on the cell surface and increases depth of penetration. Thus, the BAK and Glutaraldehyde are mutually synergistic in attacking and achieving the desired kill effect. Because BAK is a quaternary ammonium salt one would suppose that it would react adversely with the Glutaraldehyde and cause aldehyde consumption. For this reason it became mandatory to check the Glutaraldehyde content and determine if there was a decrease at the CMC. […] This is likely correct due to the small BAK concentration necessary to reach the CMC. […] As a matter of fact it acted synergistically to enhance cidal effects due to its surfactant action.

[2] = tested on: E. Coli, P. aeruginosa, salmonella typhii, and kiebsiella; assay: MIC of disinfectants by agar dilution; assay type: cell-based; conditions: individually determined
Method: In addition to the foregoing, E. Coli, P. aeruginosa, salmonella typhii, and kiebsiella were tested using selective media and biochemical means. Disk diffusion methods were used testing disinfectant resistance by measuring zones of inhibition after eighteen hours of incubation. MICs of disinfectants were determined by agar dilution. […] The preferred determined exposure is actually 4× of Glut to BAK as determined by log reduction effectiveness. This was supported by running an MIC (inhibitory) versus a MBC (bactericidal) test. Using the McFarland standard on E. coli, with the combination Glut/BAK, the result was that the bactericidal amount was 2× the inhibitory amount in ppm. This was done via serial dilutions on media Nutrient Broth.

biofilm = conditions: Flow Cytometry, MetaMorph image analysis; cited from earlier work
[3] = tested on: biofilm communities of E. faecalis; assay: Biofilm formation / LIVE/DEAD staining assay on E. faecalis biofilm communities; assay type: cell-based; conditions: components tested separately
From the text: In experiments, biofilm communities of E. faecalis were created following the techniques of Bergenholtz and Chavez, J. Endo. Coating (2010), using the present formulation. […] This was confirmed by a staining LIVE/DEAD assay. […] Clearly, Glutaraldehyde alone is not as effective as BAK, nor vice versa. Together in “proper ratio” the formula is outstanding at reducing biofilm as well as killing the necessary bacteria. This synergy was confirmed by the fractional inhibitory concentration index (FICI). The FICI for a synergistic mixture, using checkerboard, gave the combination of Glut/BAK a 0.35 FICI which is inhibitory. [Greene et al., App Env Micro Vol 72: 5254-5259 (2006)]. Mixtures according to this test are synergistic when the lowest FICI is below 0.8 therefore giving credence to the present concept. Synergy of Glut/BAK is known but has not been fully tested since the tested material has been Glut/Quats (dual chains) and not BAK. […] The present determination of 4:1 (Glut:BAK), FICI independently determined, corrects this missing component to make an effective formulation. Strong synergy has been shown between Glut/BAK (FICI 0.35). The biofilm reduction/penetration ability of BAK combined with the broad spectrum biocidal activities of Glut enable and achieve, at lower concentrations, due to synergy, the destruction of the SRBs in oil/gas as well the pertinent bacteria in health care.
This was confirmed by the staining LIVE/DEAD assay. […] Glutaraldehyde alone is not as effective as BAK. Together in proper ratio the formula is outstanding at reducing biofilm as well as killing the necessary bacteria, and provides an excellent synergistic complimentary approach to eliminating the bacterial/biofilm problem.

[4] = Pendant drop surface tension measurement (Tate's equation); assay type: physicochemical; conditions: pendant drop method, ten drops
From the text: BAK's ability to repel biofilm formation as well as penetrate is based upon the physico/chemical and steric changes provoked by hydrophobic changes and electrostatic repulsion. This is due to the positively charged nitrogen that reacts with the acidic phospholipids in the cell membrane. This is the area of penetration bringing along the Glut (cidal component) increasing surface pressure which decreases the adhesive potential by affecting the osmoregularity of bacterial adhesins. […] The BAK molecules at the proper concentration are saturated or at the critical micelle concentration (CMC). When the BAK is above the CMC and the surface tension is constant the best wetting properties are achieved. The stated BAK concentration is important since low doses can actually stimulate metabolic reactions as well as cause resistance. Again the proper importance of “concentration ratios” develops the full synergistic effect. In an example the pendant drop method was used to determine surface tension activity of BAK. Ten drops were measured with a precision balance to calculate surface energy. Tate's equation was used for calculation. It was concluded that the surface tension was reduced by approximately 53%. This illustrates that the addition of the BAK to the formulation permits a better spreading of the solution.

Compound: O=CCCCC=O [Glutaraldehyde]
- reduction in Glutaraldehyde content when combined with BAK [1]: did not show any reduction
- MIC [2]: 0.3%
- penetration of biofilm (biofilm): little or no penetration of biofilm
- kill (LIVE/DEAD staining) [3]: 45%

Compound: benzalkonium chloride [BAK]
- surface tension reduction [4]: approximately 53%
- MIC [2]: 0.13%
- penetration of biofilm (biofilm): peripheral penetration followed by inward migration
- bio-volume reduction [3]: over 70 fold
- kill (LIVE/DEAD staining) [3]: less so

Reference: US9955688B2, “Biocidal aldehyde composition” (priority 2015, dated 2018)
